In patent publication US11414425B2 (priority 2018, dated 2022):

Legend:
[1] = biological target: α5β3γ2 GABAA receptors (Homo sapiens, UniProt P18507+P31644); assay: [3H]Ro15-1788 binding, membranes of Ltk cells stably expressing α5β3γ2 GABAA receptors; details: ranges; inhibition of [3H]Ro15-1788 binding
[2] = biological target: T1, GABAA receptors (α5β2γ2) (Homo sapiens, UniProt P18507+P31644); assay: Positive allosteric modulator activity: potentiation of EC20 GABA current in oocytes; type: cell-based; details: read-out: GABA α5 Functional Data (potentiation of EC20 GABA); @ 100 nM; ranges
T1 construct: expressed in transfected cells
T1 sequence (P31644 32-462): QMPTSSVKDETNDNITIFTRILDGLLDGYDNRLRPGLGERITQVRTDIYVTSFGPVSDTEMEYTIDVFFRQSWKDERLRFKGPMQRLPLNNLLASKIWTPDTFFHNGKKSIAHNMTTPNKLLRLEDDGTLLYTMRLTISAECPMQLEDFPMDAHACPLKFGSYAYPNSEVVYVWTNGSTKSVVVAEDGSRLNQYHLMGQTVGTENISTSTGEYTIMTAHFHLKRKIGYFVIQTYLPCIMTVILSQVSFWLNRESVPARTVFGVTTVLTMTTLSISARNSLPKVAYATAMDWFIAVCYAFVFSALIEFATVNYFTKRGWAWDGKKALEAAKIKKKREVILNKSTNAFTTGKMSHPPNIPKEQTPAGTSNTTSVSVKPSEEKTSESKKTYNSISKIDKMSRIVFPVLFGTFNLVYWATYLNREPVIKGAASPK
T1 sequence (P47870 25-512, further chain): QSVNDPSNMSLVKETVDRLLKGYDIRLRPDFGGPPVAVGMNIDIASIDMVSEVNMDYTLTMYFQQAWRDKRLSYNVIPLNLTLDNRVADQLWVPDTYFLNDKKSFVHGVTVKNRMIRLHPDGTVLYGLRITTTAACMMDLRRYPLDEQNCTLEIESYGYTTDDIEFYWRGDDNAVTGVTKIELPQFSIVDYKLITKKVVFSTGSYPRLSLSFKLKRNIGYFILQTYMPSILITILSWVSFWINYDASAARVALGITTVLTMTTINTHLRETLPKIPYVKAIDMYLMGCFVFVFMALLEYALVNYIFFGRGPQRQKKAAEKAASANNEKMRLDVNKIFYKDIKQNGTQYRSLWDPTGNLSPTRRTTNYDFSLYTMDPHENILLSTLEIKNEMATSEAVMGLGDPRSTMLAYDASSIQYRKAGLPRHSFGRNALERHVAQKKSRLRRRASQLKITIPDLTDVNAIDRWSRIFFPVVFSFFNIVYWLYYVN
T1 sequence (P18507 40-475): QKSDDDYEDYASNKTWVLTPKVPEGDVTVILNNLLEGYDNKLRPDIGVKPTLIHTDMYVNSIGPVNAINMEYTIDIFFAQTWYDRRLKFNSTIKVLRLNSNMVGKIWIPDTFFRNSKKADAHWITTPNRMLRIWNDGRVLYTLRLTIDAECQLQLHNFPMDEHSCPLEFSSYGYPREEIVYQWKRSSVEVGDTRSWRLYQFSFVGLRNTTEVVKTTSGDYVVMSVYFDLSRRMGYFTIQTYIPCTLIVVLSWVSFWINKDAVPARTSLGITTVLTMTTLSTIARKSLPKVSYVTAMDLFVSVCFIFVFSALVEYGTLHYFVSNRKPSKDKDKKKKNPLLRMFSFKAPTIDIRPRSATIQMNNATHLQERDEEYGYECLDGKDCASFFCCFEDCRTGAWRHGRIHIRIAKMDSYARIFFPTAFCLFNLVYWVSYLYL
Protocol: On day 1, 1 ng/32 nL of GABAA α5β2γ2 cDNA was injected into one oocyte. Test starts on day 2. The cDNA injected to the oocytes was a mix of alpha, beta and gamma, their ratio is 1:1:10 (by weight) and the total weight of the mixed 3 subunits to be injected in one oocyte was 1 ng in 32 nl volume. The injected oocytes can also be tested on day 3. In such case, the cDNA amount injected to the oocytes should be reduced by 20%.
1). 8 oocytes were placed in 8 chambers of OpusXpress and superfused with Modified Barth's Saline (MBS) at 3 mL/min. Glass electrodes back-filled with 3M KCl (0.5-3 megaohms) were used.
1). New oocytes were used to run new test.
3). […] Oocytes were washed with MBS for 5-10 min.
4). […] Itest was divided by IGABA to obtain potentiation (%).
Test Compounds at Multiple Doses • 1). Repeat the above steps 1), 2) and 3) in the control test. • 2). […] Divide Itest by IGABA to obtain potentiation (%). • 3). Discard all tested oocytes, new oocytes were used and the above steps 1) and 2) were repeated to test second concentration of the same compound. Each oocyte was used for only one concentration test for a single test compound. The steps were repeated for other test compounds.

Chain of α5β3γ2 GABAA receptors (P31644 32-462): as the sequence (P31644 32-462) above
Chain of α5β3γ2 GABAA receptors (P28472 26-473 partner): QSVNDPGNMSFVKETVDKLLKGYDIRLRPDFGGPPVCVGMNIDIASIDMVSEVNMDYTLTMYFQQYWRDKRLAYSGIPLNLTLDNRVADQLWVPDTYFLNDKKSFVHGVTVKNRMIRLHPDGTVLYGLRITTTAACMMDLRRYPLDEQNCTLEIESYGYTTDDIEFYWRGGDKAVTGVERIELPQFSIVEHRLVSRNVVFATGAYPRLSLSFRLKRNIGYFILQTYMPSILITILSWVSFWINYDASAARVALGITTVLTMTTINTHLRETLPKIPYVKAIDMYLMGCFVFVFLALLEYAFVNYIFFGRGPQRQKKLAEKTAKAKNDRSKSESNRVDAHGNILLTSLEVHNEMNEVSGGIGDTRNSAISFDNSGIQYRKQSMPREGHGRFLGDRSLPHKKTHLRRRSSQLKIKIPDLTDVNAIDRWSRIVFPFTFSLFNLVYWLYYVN
Chain of α5β3γ2 GABAA receptors (P18507 40-475): as the sequence (P18507 40-475) above

SMILES | Ki [1] [nM] | activation at 0.1 µM [2] [%]
COCc1nnc2n1Cc1c(C#Cc3ccc(OC)nn3)ncn1-c1ccc(Cl)cc1-2 [Compound 707] | < 100 | > 50
COc1ccc(C#Cc2ncn3c2Cc2cnnn2-c2cc(C(F)(F)F)ccc2-3)cn1 [Compound 553] | < 100 | 5 to 20
Cc1noc(-c2ncn3c2Cc2cnnn2-c2cc(Br)ccc2-3)n1 [Compound 473] | < 100 | 5 to 20
Clc1ccc2c(c1)-n1nncc1Cc1c(C3=NCC(c4ccccn4)O3)ncn1-2 (stereo not shown) [Compound 627] | < 100 | 20 to 50
COCc1nnc2n1Cc1c(C#Cc3ccc(OC)cn3)ncn1-c1ccc(Cl)cc1-2 [Compound 528] | < 100 | > 50
COc1ccc2c(c1)-n1nncc1Cc1c(C3=NCC(c4ncccc4OC)O3)ncn1-2 (stereo not shown) [Compound 632] | < 100 | 5 to 20
COCc1nnc2n1Cc1c(C#Cc3cccnc3OC)ncn1-c1ccc(OC)cc1-2 [Compound 615] | < 100 | 20 to 50
Clc1ccc2c(c1)-n1nncc1Cc1c(C3=NC[C@H](c4ccccc4)O3)ncn1-2 [Compound 513] | < 100 | 20 to 50
FC(F)(F)Oc1ccc2c(c1)-n1nncc1Cc1c(-c3ncco3)ncn1-2 [Compound 476] | < 100 | 5 to 20
COCc1nnc2n1Cc1c(C#Cc3cnccn3)ncn1-c1ccc(Cl)cc1-2 [Compound 576] | < 100 | 20 to 50
COCc1nnc2n1Cc1c(C#Cc3cc(C)cnn3)ncn1-c1ccc(Cl)cc1-2 [Compound 609] | 100 to 1000 | 20 to 50
COc1ccc2c(c1)-n1nncc1Cc1c(C#CC(C)(C)C)ncn1-2 [Compound 535] | < 100 | 5 to 20
Cc1noc(-c2ncn3c2Cc2c(Cc4cccc(F)c4)nnn2-c2cc(OC(F)(F)F)ccc2-3)n1 [Compound 485] | < 100 | 5 to 20
COCc1nnc2n1Cc1c(C#Cc3cnc(C)[nH]3)ncn1-c1ccc(Cl)cc1-2 [Compound 681] | < 100 | > 50
COCc1nnc2n1Cc1c(C#Cc3ccc4[nH]ccc4c3)ncn1-c1ccc(OC)cc1-2 [Compound 715] | < 100 | 20 to 50
Cc1noc(-c2ncn3c2Cc2c(Cc4cccc(F)c4)nnn2-c2cc(C(F)(F)F)ccc2-3)n1 [Compound 482] | < 100 | 20 to 50
CCc1cncc(C#Cc2ncn3c2Cc2c(COC)nnn2-c2cc(Cl)ccc2-3)c1 [Compound 638] | < 100 | > 50
COc1ccc(C#Cc2ncn3c2Cc2cnnn2-c2cc(C(F)(F)F)ccc2-3)cc1 [Compound 499] | < 100 | 20 to 50
COCc1nnc2n1Cc1c(C#Cc3cnccn3)ncn1-c1ccc(OC)cc1-2 [Compound 589] | < 100 | > 50
CCc1cncc(C#Cc2ncn3c2Cn2c(COC)nnc2-c2cc(Cl)ccc2-3)c1 [Compound 604] | < 100 | > 50
FC(F)(F)Oc1ccc2c(c1)-n1nncc1Cc1c(C3=N[C@H](c4ccccc4)CO3)ncn1-2 [Compound 507] | < 100 | 5 to 20
COc1ccc(C#Cc2ncn3c2Cn2c(COC(F)F)nnc2-c2cc(Cl)ccc2-3)cn1 [Compound 616] | < 100 | 5 to 20
Fc1ccc(C#Cc2ncn3c2Cc2cnnn2-c2cc(OC(F)F)ccc2-3)cc1 [Compound 500] | < 100 | 5 to 20
COCc1nnn2c1Cc1c(C#Cc3ccc(OC)cn3)ncn1-c1ccc(Cl)cc1-2 [Compound 637] | < 100 | 20 to 50
COc1ccc(C#Cc2ncn3c2Cc2cnnn2-c2cc(OC(F)F)ccc2-3)cn1 [Compound 555] | < 100 | 5 to 20
Cc1noc(-c2ncn3c2Cc2c(Cc4ccc(F)cc4)nnn2-c2cc(OC(F)F)ccc2-3)n1 [Compound 492] | < 100 | 20 to 50
